Tests used:
Format in all cases: in vivo
[1] = tested on: sedge, umbrella (small-flower umbrella sedge Cyperus difformis); experiment: Test B flooded paddy: sedge, umbrella; settings: Flood; 250 g ai/ha; applied to paddy water at 2-leaf stage; visually evaluated after 13 to 15 days
Method: (§1) Seeds selected from rice (Oryza sativa), sedge, umbrella (small-flower umbrella sedge Cyperus difformis), ducksalad (Heteranthera limosa), and barnyardgrass (Echinochloa crus-galli) were grown to the 2-leaf stage for testing. At time of treatment, test pots were flooded to 3 cm above the soil surface, treated by application of test compounds directly to the paddy water, and then maintained at that water depth for the duration of the test.
(§2) Treated plants and controls were maintained in a greenhouse for 13 to 15 days, after which time all species were compared to controls and visually evaluated. Plant response ratings, summarized in Table B, are based on a scale of 0 to 100 where 0 is no effect and 100 is complete control. A dash (-) response means no test result.

rice (Oryza sativa) [2] = experiment: Test B flooded paddy: rice; settings: Flood; 250 g ai/ha; applied to paddy water at 2-leaf stage; visually evaluated after 13 to 15 days
Method: as §1, §2

[3] = tested on: crabgrass, large (large crabgrass, Digitaria sanguinalis); experiment: Test A pre-/postemergence: crabgrass, large; settings: for Crabgrass, Large plant response rating: Postemergence; for Plant response rating, Crabgrass, Large: Preemergence
Procedure, shortened: (§3)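 Plants in loam–sand blend were treated with test chemicals in non-phytotoxic solvent with surfactant, either as preemergence directed soil spray or postemergence at 2–10 cm, one- to two-leaf stage. After about ten days in greenhouse, injury was rated visually against untreated controls on a 0–100 scale (100 = complete control).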

[4] = tested on: morningglory (Ipomoea spp.); experiment: Test A pre-/postemergence: morningglory; settings: for Morningglory plant response rating: Postemergence; for Plant response rating, Morningglory: Preemergence
Procedure, shortened: as §3

[5] = tested on: velvetleaf (Abutilon theophrasti); experiment: Test A pre-/postemergence: velvetleaf; settings: for Velvetleaf plant response rating: Postemergence; for Plant response rating, Velvetleaf: Preemergence
Procedure, shortened: as §3

[6] = tested on: barnyardgrass (Echinochloa crus-galli); experiment: Test B flooded paddy: barnyardgrass; settings: Flood; 250 g ai/ha; applied to paddy water at 2-leaf stage; visually evaluated after 13 to 15 days
Method: as §1, §2

[7] = tested on: barnyardgrass (Echinochloa crus-galli); experiment: Test A pre-/postemergence: barnyardgrass; settings: for Barnyardgrass plant response rating: Postemergence; for Plant response rating, Barnyardgrass: Preemergence
Procedure, shortened: as §3

[8] = tested on: foxtail, giant (giant foxtail, Setaria faberii); experiment: Test A pre-/postemergence: foxtail, giant; settings: for Foxtail, Giant plant response rating: Postemergence; for Plant response rating, Foxtail, Giant: Preemergence
Procedure, shortened: as §3

corn (Zea mays) = experiment: Test A pre-/postemergence: corn; settings: for Corn plant response rating: Postemergence; for Plant response rating, Corn: Preemergence
Procedure, shortened: as §3

[9] = tested on: ducksalad (Heteranthera limosa); experiment: Test B flooded paddy: ducksalad; settings: Flood; 250 g ai/ha; applied to paddy water at 2-leaf stage; visually evaluated after 13 to 15 days
Method: as §1, §2

[10] = tested on: pigweed (Amaranthus retroflexus); experiment: Test A pre-/postemergence: pigweed; settings: for Pigweed plant response rating: Postemergence; for Plant response rating, Pigweed: Preemergence
Procedure, shortened: as §3

[11] = tested on: wheat (Triticum aestivum); experiment: Test A pre-/postemergence: wheat; settings: for Wheat plant response rating: Postemergence; for Plant response rating, Wheat: Preemergence
Procedure, shortened: as §3

[12] = tested on: sedge, umbrella (small-flower umbrella sedge, Cyperus difformis); experiment: Test C flooded paddy test: sedge, umbrella; settings: scale 0 to 100 (0 no effect, 100 complete control)
Procedure, shortened: (§4)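 Rating: visual, 0–100 (100 = complete control), versus untreated controls after 13 to 15 greenhouse days. Treatment went into paddy water held at 3 cm over the soil, on plants grown to two leaves.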

[13] = tested on: barnyardgrass (Echinochloa crus-galli); experiment: Test C flooded paddy test: barnyardgrass; settings: scale 0 to 100 (0 no effect, 100 complete control)
Procedure, shortened: as §4

[14] = tested on: ducksalad (Heteranthera limosa); experiment: Test C flooded paddy test: ducksalad; settings: scale 0 to 100 (0 no effect, 100 complete control)
Procedure, shortened: as §4

rice (Oryza sativa) [15] = experiment: Test C flooded paddy test: rice; settings: scale 0 to 100 (0 no effect, 100 complete control)
Procedure, shortened: as §4

[16] = 125 g ai/ha, 0 to 100 scale, 0 is no effect, 100 is complete control
[17] = 500 g ai/ha, visual rating on 0 to 100 scale (0 no effect, 100 complete control), approximately ten days
[18] = 125 g ai/ha, 0 to 100 scale (0 no effect, 100 complete control)
[19] = 500 g ai/ha, 0 to 100 scale, 0 is no effect, 100 is complete control
[20] = Flood (flooded paddy test), 250 g ai/ha, visual rating after 13 to 15 days
[21] = 1000 g ai/ha, visual rating on 0 to 100 scale (0 no effect, 100 complete control), approximately ten days
[22] = 1000 g ai/ha, 0 to 100 scale, 0 is no effect, 100 is complete control

COc1nn(-c2ccc(F)cc2)nc1C(=O)c1ccnc(C(F)(F)F)c1 [Compound 24]
Plant response rating, Sedge, Umbrella (0 to 100 scale, 0 is no effect, 100 is complete control) [1]: 0
Plant response rating, Rice (0 to 100 scale, 0 is no effect, 100 is complete control) (rice (Oryza sativa) [2]): 0
Crabgrass, Large plant response rating [3, 16]: 10
Crabgrass, Large plant response rating [3, 17]: 20
Plant response rating, Crabgrass, Large [3, 18]: 0
Plant response rating, Crabgrass, Large [3, 19]: 20
Morningglory plant response rating [4, 16]: 20
Morningglory plant response rating [4, 17]: 20
Plant response rating, Morningglory [4, 18]: 0
Plant response rating, Morningglory [4, 19]: 0
Velvetleaf plant response rating [5, 16]: 20
Velvetleaf plant response rating [5, 17]: 20
Plant response rating, Velvetleaf [5, 18]: 0
Plant response rating, Velvetleaf [5, 19]: 0
Plant response rating, Barnyardgrass (0 to 100 scale, 0 is no effect, 100 is complete control) [6]: 0
Barnyardgrass plant response rating [7, 16]: 0
Barnyardgrass plant response rating [7, 17]: 20
Plant response rating, Barnyardgrass [7, 18]: 0
Plant response rating, Barnyardgrass [7, 19]: 0
Foxtail, Giant plant response rating [8, 16]: 10
Foxtail, Giant plant response rating [8, 17]: 20
Plant response rating, Foxtail, Giant [8, 18]: 20
Plant response rating, Foxtail, Giant [8, 19]: 70
Corn plant response rating (corn (Zea mays); [16]): 10
Corn plant response rating (corn (Zea mays); [17]): 20
Plant response rating, Corn (corn (Zea mays); [18]): 0
Plant response rating, Corn (corn (Zea mays); [19]): 0
Plant response rating, Ducksalad (0 to 100 scale, 0 is no effect, 100 is complete control) [9]: 0
Pigweed plant response rating [10, 16]: 40
Pigweed plant response rating [10, 17]: 90
Plant response rating, Pigweed [10, 18]: 0
Plant response rating, Pigweed [10, 19]: 20
Wheat plant response rating [11, 16]: 10
Wheat plant response rating [11, 17]: 10
Plant response rating, Wheat [11, 18]: 0
Plant response rating, Wheat [11, 19]: 0

CSc1nn(-c2ccc(F)cc2)nc1Cc1ccnc(C(F)(F)F)c1 [Compound 27]
Plant response rating, Sedge, Umbrella (0 to 100 scale, 0 is no effect, 100 is complete control) [1]: 20
Plant response rating, Rice (0 to 100 scale, 0 is no effect, 100 is complete control) (rice (Oryza sativa) [2]): 10
Crabgrass, Large plant response rating [3, 16]: 30
Crabgrass, Large plant response rating [3, 17]: 40
Plant response rating, Crabgrass, Large [3, 18]: 20
Plant response rating, Crabgrass, Large [3, 19]: 40
Morningglory plant response rating [4, 16]: 40
Morningglory plant response rating [4, 17]: 90
Plant response rating, Morningglory [4, 18]: 0
Plant response rating, Morningglory [4, 19]: 0
Velvetleaf plant response rating [5, 16]: 40
Velvetleaf plant response rating [5, 17]: 50
Plant response rating, Velvetleaf [5, 18]: 0
Plant response rating, Velvetleaf [5, 19]: 0
Plant response rating, Barnyardgrass (0 to 100 scale, 0 is no effect, 100 is complete control) [6]: 20
Barnyardgrass plant response rating [7, 16]: 0
Barnyardgrass plant response rating [7, 17]: 20
Plant response rating, Barnyardgrass [7, 18]: 0
Plant response rating, Barnyardgrass [7, 19]: 10
Foxtail, Giant plant response rating [8, 16]: 30
Foxtail, Giant plant response rating [8, 17]: 40
Plant response rating, Foxtail, Giant [8, 18]: 10
Plant response rating, Foxtail, Giant [8, 19]: 80
Corn plant response rating (corn (Zea mays); [16]): 20
Corn plant response rating (corn (Zea mays); [17]): 20
Plant response rating, Corn (corn (Zea mays); [18]): 0
Plant response rating, Corn (corn (Zea mays); [19]): 0
Plant response rating, Ducksalad (0 to 100 scale, 0 is no effect, 100 is complete control) [9]: 50
Pigweed plant response rating [10, 16]: 90
Pigweed plant response rating [10, 17]: 100
Plant response rating, Pigweed [10, 18]: 0
Plant response rating, Pigweed [10, 19]: 80
Wheat plant response rating [11, 16]: 20
Wheat plant response rating [11, 17]: 40
Plant response rating, Wheat [11, 18]: 0
Plant response rating, Wheat [11, 19]: 0

Cc1ccc(-n2nc(C)c(C(=O)c3cccc(C(F)(F)F)c3)n2)cc1 [Compound 44]
Plant response rating, Sedge, Umbrella (0 to 100 scale, 0 is no effect, 100 is complete control) [1]: 0
Plant response rating, Rice (0 to 100 scale, 0 is no effect, 100 is complete control) (rice (Oryza sativa) [2]): 0
Crabgrass, Large plant response rating [3, 16]: 30
Crabgrass, Large plant response rating [3, 17]: 40
Plant response rating, Crabgrass, Large [3, 18]: 60
Plant response rating, Crabgrass, Large [3, 19]: 90
Morningglory plant response rating [4, 16]: 20
Morningglory plant response rating [4, 17]: 70
Velvetleaf plant response rating [5, 16]: 60
Velvetleaf plant response rating [5, 17]: 70
Plant response rating, Velvetleaf [5, 18]: 0
Plant response rating, Velvetleaf [5, 19]: 50
Plant response rating, Barnyardgrass (0 to 100 scale, 0 is no effect, 100 is complete control) [6]: 0
Barnyardgrass plant response rating [7, 16]: 20
Barnyardgrass plant response rating [7, 17]: 20
Plant response rating, Barnyardgrass [7, 18]: 0
Plant response rating, Barnyardgrass [7, 19]: 30
Foxtail, Giant plant response rating [8, 16]: 20
Foxtail, Giant plant response rating [8, 17]: 30
Plant response rating, Foxtail, Giant [8, 18]: 70
Plant response rating, Foxtail, Giant [8, 19]: 90
Corn plant response rating (corn (Zea mays); [16]): 30
Corn plant response rating (corn (Zea mays); [17]): 30
Plant response rating, Corn (corn (Zea mays); [18]): 0
Plant response rating, Corn (corn (Zea mays); [19]): 20
Plant response rating, Ducksalad (0 to 100 scale, 0 is no effect, 100 is complete control) [9]: 0
Pigweed plant response rating [10, 16]: 70
Pigweed plant response rating [10, 17]: 90
Plant response rating, Pigweed [10, 18]: 20
Plant response rating, Pigweed [10, 19]: 90
Wheat plant response rating [11, 16]: 20
Wheat plant response rating [11, 17]: 30
Plant response rating, Wheat [11, 18]: 0
Plant response rating, Wheat [11, 19]: 30

Cc1nn(-c2ccc(C(F)(F)F)cc2)nc1Cn1nc(C(F)(F)F)cc1C [Compound 134]
Plant response rating, Sedge, Umbrella [12, 20]: 0
Plant response rating, Sedge, Umbrella ([12]; Flood, 62 g ai/ha): 0
Crabgrass, Large plant response rating [3, 21]: 90
Plant response rating, Crabgrass, Large [3, 22]: 100
Morningglory plant response rating [4, 21]: 100
Plant response rating, Morningglory [4, 22]: 10
Velvetleaf plant response rating [5, 21]: 50
Plant response rating, Velvetleaf [5, 22]: 0
Plant response rating, Barnyardgrass [13, 20]: 15
Plant response rating, Barnyardgrass ([13]; Flood, 62 g ai/ha): 0
Barnyardgrass plant response rating [7, 21]: 30
Plant response rating, Barnyardgrass [7, 22]: 30
Foxtail, Giant plant response rating [8, 21]: 50
Plant response rating, Foxtail, Giant [8, 22]: 100
Corn plant response rating (corn (Zea mays); [21]): 20
Plant response rating, Corn (corn (Zea mays); [22]): 10
Plant response rating, Ducksalad [14, 20]: 0
Plant response rating, Ducksalad ([14]; Flood, 62 g ai/ha): 0
Pigweed plant response rating [10, 21]: 100
Plant response rating, Pigweed [10, 22]: 90
Wheat plant response rating [11, 21]: 0
Plant response rating, Wheat [11, 22]: 0
Plant response rating, Rice (rice (Oryza sativa) [15]; [20]): 0
Plant response rating, Rice (rice (Oryza sativa) [15]; Flood, 62 g ai/ha): 0

Reference: patent US9302999B2, “Substituted triazoles as herbicides” (E. I. DU PONT DE NEMOURS AND COMPANY, priority 2012, dated 2016)
